Assay results as given in patent US10806746B2, “Di- and tri-cationic glycosylated antitumor ether lipids, L-gucosylated gaels and rhamnose-linked gaels as cytotoxic agents against epithelial cancer cells and cancer stem cells” (The University of Manitoba, priority 2014, dated 2020).
Read-outs that look alike come from different tables or passages of the source.

Columns and labels:
BT-474 cells = experiment: MTS viability assay, BT-474 breast cancer cells; type: cell-based, human
Experimental: (§1) FIG. 2C. Effects of compounds 1-11 on the viability of BT-474 cells. BT-474 cells were cultured in DMEM/F12 medium supplemented with 10% FBS. Equal numbers were dispersed into 96-well plates. After 24 h, the cells were incubated with compounds 1-11 (0-30 μM) for 48 h. At the end of the incubation, MTS reagent (20% vol/vol) was added and the plates were incubated for 1-4 h. The OD490 was read with a plate reader. Wells with media but no cells were treated in similar fashion and the values utilized as blank. The results represent the mean±standard deviation of 6 independent determinations.
(§2) The cell lines were cultured from frozen stocks originally obtained from ATCC. MDA-MB-231, JIMT-1, DU145, U81, U251 cells were grown in DMEM medium. BT474, A2780s, A2780cp cells were grown in DMEM/F12 medium supplemented with 10% FBS. MiaPaCa2 was cultured in DMEM supplemented with 10% FBS and 2.5% horse serum. PC3 cells were cultured in F12K medium supplemented with 10% FBS. All the media were supplemented with penicillin/streptomycin.
(§3) The effects of the GAELs on the viability of the various epithelial cancer cell lines was determined as previously described. Briefly, equal numbers of the cells were dispersed into 96-well plates. After 24 h, the cells were incubated with the compounds (0-30 μM) for 48 h. At the end of the incubation, MTS reagent (20% vol/vol) was added and the plates were incubated for 1-4 h. The OD490 was read with a plate reader. Wells with media but no cells were treated in similar fashion and the values utilized as blank. The results represent the mean±standard deviation of 6 independent determinations.

JIMT-1 cells = experiment: MTS viability assay, JIMT-1 breast cancer cells; type: cell-based, human
Experimental: as §1, with “2B.” for “2C.”, “JIMT-1” for “BT-474”, “DMEM” for “DMEM/F12”
as §1, with “2J.” for “2C.”, “1, 69-72” for “1-11”, “JIMT-1” for “BT-474”, “DMEM” for “DMEM/F12”, “1, 69-72” for “1-11 (0-30 μM)”
as §2, §3

[1] = test system: EOC 216H primary ovarian cancer cells; experiment: MTS viability, primary epithelial ovarian cancer cells EOC 216H; type: cell-based; settings: Homo sapiens
Experimental: (§4) FIG. 2L to 2N. Effects of compounds 1, 56 or 69 on the viability of primary epithelial ovarian cancer cells grown as adherent and spheroid cultures. EOC cells were isolated from the ascites of ovarian cancer patients. Cells were seeded in regular 96-well plates and grown as adherent cultures. 24 h after seeding the cells were incubated with compounds 1, 56, or 69 for 48 h and the viability of the cells were determined with the MTS assay. Spheroid cultures were obtained by seeding the cells in ultra-low adhesion 96-well plates for 3 days. The spheroids were incubated with compounds 1, 56 or 69 for 3 days. At the end of the incubations, MTS reagent (20% vol/vol) was added and the plates were incubated for 1-4 h. The OD490 was read with a plate reader. Wells with media but no cells were treated in similar fashion and the values utilized as blank. The results represent the mean±standard deviation of 6 independent determinations.
(§5) 4.3.1.2. Isolation of primary epithelial ovarian cancer cells (EOC) from ascites fluid of ovarian cancer patients. The isolation of EOC cells from the ascites fluid of ovarian cancer patients was performed as described by Shepherd et al 2007, Nature protocols 1, 2643-2649). The cells were grown in DMEM/F12 supplemented with 10% FBS medium. 4.3.2. Isolation of breast cancer stem cells from BT-474, prostate cancer stem cells from DU145, and ovarian cancer stem cells from A2780cp cell lines and determination of the effect of GAELs on the viability of the cancer stem cells.

[2] = test system: EOC216B primary ovarian cancer cells; experiment: MTS viability, primary epithelial ovarian cancer cells EOC216B; type: cell-based; settings: Homo sapiens
Experimental: as §4, §5

[3] = test system: EOC258 primary ovarian cancer cells; experiment: MTS viability, primary epithelial ovarian cancer cells EOC258; type: cell-based; settings: Homo sapiens
Experimental: as §4, §5

[4] = test system: EOC260 primary ovarian cancer cells; experiment: MTS viability, primary epithelial ovarian cancer cells EOC260; type: cell-based; settings: Homo sapiens; adherent culture, 48 h
Experimental: as §4
4.3.1.2. Isolation of primary epithelial ovarian cancer cells (EOC) from ascites fluid of ovarian cancer patients. The isolation of EOC cells from the ascites fluid of ovarian cancer patients was performed as described by Shepherd et al 2007, Nature protocols 1, 2643-2649). The cells were grown in DMEM/F12 supplemented with 10% FBS medium. 4.3.2. […]

[5] = Table 1A, 48 h, MTS, read-out: CC50 values BT474
[6] = Table 1B, 48 h, MTS, read-out: CC90 values BT474
[7] = Table 1A, 48 h, read-out: CC50 values JIMT1
[8] = Table 1B, 48 h, read-out: CC90 values JIMT1
[9] = adherent culture, 48 h, read-out: CC50 values EOC 216H Adherent
[10] = spheroid culture, 3 days, read-out: CC50 values EOC 216H Spheroid
[11] = 72 h, spheroid culture, 3 days, read-out: CC50 values EOC216B Spheroid
[12] = adherent culture, 48 h, read-out: CC50 values EOC216B Adherent
[13] = 72 h, spheroid culture, 3 days, read-out: CC50 values EOC258 Spheroid
[14] = adherent culture, 48 h, read-out: CC50 values EOC258 Adherent
[15] = Homo sapiens, JIMT-1, Table 5, 48 h, read-out: CC50 JIMT1
[16] = Homo sapiens, JIMT-1, Table 5, 48 h, read-out: CC90 JIMT1

| SMILES | CC50 (BT-474 cells; [5]) [µM] | CC90 (BT-474 cells; [6]) [µM] | CC50 (JIMT-1 cells; [7]) [µM] | CC90 (JIMT-1 cells; [8]) [µM] | CC50 [1, 9] [µM] | CC50 [1, 10] [µM] | CC50 [2, 11] [µM] | CC50 [2, 12] [µM] | CC50 [3, 13] [µM] | CC50 [3, 14] [µM] | CC50 (JIMT-1 cells; [15]) [µM] | CC90 (JIMT-1 cells; [16]) [µM] | CC50 [4] [µM] | further results |
| --- | --- | --- | --- | --- | --- | --- | --- | --- | --- | --- | --- | --- | --- | --- |
| CCCCCCCCCCCCCCCCOCCCO[C@@H]1O[C@H](CN)[C@@H](O)[C@H](O)[C@H]1N [Compound 4, 1-O-Hexadecyl-2-deoxy-3-O-(2′6′-diamino-2′,6′-dideoxy-β-D-glucopyranosyl)-sn-glycerol] | 8.5 | 17.5 | 4 | 6 |  |  |  |  |  |  |  |  |  |  |
| CCCCCCCCCCCCCCCCOC[C@H](CO[C@H]1O[C@H](CN)[C@@H](O)[C@H](O)[C@H]1N)OC [Compound 1, 1-O-Hexadecyl-2-O-methyl-3-O-(2′,6′-diamino-2′,6′-dideoxy-α-D-glucopyranosyl)-sn-glycerol] |  |  |  |  | 0.15 | 0.21 | 0.6 | 0.24 | 0.6 | 0.3 | 3.5 | 4.9 | 0.2 | CC50 (BT-474 cells; Homo sapiens, BT-474, Table 1A, 48 h, MTS, read-out: CC50 values BT474): 7.5 µM; CC90 (BT-474 cells; Homo sapiens, BT-474, Table 1B, 48 h, MTS, read-out: CC90 values BT474): 9.5 µM; CC50 (BT-474 cells; Homo sapiens, BT-474, Table 5, 48 h, MTS, read-out: CC50 B1474): 7.5 µM; CC50 (JIMT-1 cells; Homo sapiens, JIMT-1, Table 1A, 48 h, read-out: CC50 values JIMT1): 3.5 µM; CC90 (JIMT-1 cells; Homo sapiens, JIMT-1, Table 1B, 48 h, read-out: CC90 values JIMT1): 4.9 µM |
| CCCCCCCCCCCCCCCCOC[C@@H](CN=[N+]=[N-])O[C@@H]1O[C@H](CO)[C@@H](O)[C@H](O)[C@H]1N [Compound 6, 1-O-Hexadecyloxy-2R-(2′-amino-2′-deoxy-β-D-glucopyranosyl)-3-azido glycerol] | 22 | 28 | 9.5 | 13.5 |  |  |  |  |  |  |  |  |  | CC50 (BT-474 cells; read-out: CC50 against BT 474 cell lines): 22 µM |
| CCCCCCCCCCCCCCCCOC[C@H](COC1O[C@H](CNCCCCCCCCCCCCN)[C@@H](O)[C@H](O)[C@H]1N)OC (stereo partly drawn) [Compound 73, 1-O-Hexadecyl-2-O-methyl-3-O-[6′-N-(12-aminododecyl)-2′,6′-diamino-2′,6′-dideoxy-glucopyranoside]-sn-glycerol] |  |  |  |  |  |  |  |  |  |  |  |  |  | CC50 (BT-474 cells; Table 6, 48 h, MTS, read-out: BT474 CC50): 1.6 µM; CC90 (BT-474 cells; Table 6, 48 h, MTS, read-out: BT474 CC90): 4.2 µM; CC50 (JIMT-1 cells; Table 6, 48 h, read-out: JIMT1 CC50): 3.4 µM; CC90 (JIMT-1 cells; Table 6, 48 h, read-out: JIMT1 CC90): 4.6 µM |
| CCCCCCCCCCCCCCCCOCC(CO[C@@H]1O[C@H](CN)[C@@H](O)[C@H](O)[C@H]1N)O[C@@H]1O[C@H](CN)[C@@H](O)[C@H](O)[C@H]1N (stereo partly drawn) [Compound 5, 1-O-Hexadecyloxy-2S/R, 3-di(-2′,6′-diamino-2′, 6′-dideoxy-β-D-glucopyranosyl)-glycerol] | > 30 | > 30 | > 30 | > 30 |  |  |  |  |  |  |  |  |  |  |
| CCCCCCCCCCCCCCCCOCC(CO[C@@H]1OC(CO)[C@H](O)[C@H](O)C1N)OC (stereo partly drawn) [Compound 69] |  |  |  |  | 1.02 | 1.5 | 1.25 | 0.56 | 1.2 | 1.4 | 6.5 | 11 | 0.3 | CC50 (JIMT-1 cells; Homo sapiens, JIMT-1, Table 2A, 48 h, read-out: CC50 values JIMT1): 6.5 µM; CC90 (JIMT-1 cells; Homo sapiens, JIMT-1, Table 2B, 48 h, read-out: CC90 values JIMT1): 11 µM |
